Measured values as given in ChEMBL document CHEMBL1136708, “Structure-based design of inhibitors of human L-xylulose reductase modelled into the active site of the enzyme” (Bioorg Med Chem Lett, 2003).

How the values were obtained:
[1] = target: L-xylulose reductase (Homo sapiens) (UniProt Q7Z4W1)
[2] = target: L-xylulose reductase (Homo sapiens) (UniProt Q7Z4W1); test: Protein interaction energy by using binding affinity towards human L-xylulose reductase enzyme

Chain of L-xylulose reductase (Homo sapiens) (Q7Z4W1 whole entry): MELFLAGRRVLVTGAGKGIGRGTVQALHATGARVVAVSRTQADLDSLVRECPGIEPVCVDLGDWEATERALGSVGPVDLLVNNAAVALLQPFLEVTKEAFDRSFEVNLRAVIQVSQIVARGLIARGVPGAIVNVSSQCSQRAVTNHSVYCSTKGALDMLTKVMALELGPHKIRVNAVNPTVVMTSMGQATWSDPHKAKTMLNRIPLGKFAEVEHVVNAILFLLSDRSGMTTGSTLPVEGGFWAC

SMILES | Protein interaction energy [1] | Protein interaction energy [2]
CCC(C(=O)O)c1ccc(O)cc1 (stereo not given) | -51.6 kcal/M | 
CCCOP(=O)(O)O | -87.4 kcal/M | 
CCCc1ccc(O)cc1 | -26.9 kcal/M | 
CCC(C(=O)O)C(=O)O |  | -86.7 kcal/M
CO[PH](O)(O)OCC(=O)O | -114 kcal/M | 
CCC(CO)C(=O)O (stereo not given) | -41.4 kcal/M | 
CCCC(=O)O | -40.4 kcal/M | 
O=C(O)CCC(=O)O | -114 kcal/M | 
O=C(O)CC(C(=O)O)C(=O)O | -163 kcal/M | 
CCC(O)C(=O)O (stereo not given) | -38.4 kcal/M | 
